The values that follow come from patent publication US20050049294A1, “Methods of using [3.2.0] heterocyclic compounds and analogs thereof” (priority 2003, published 2005).

In series [1] the test system is IκBα in HEK293 cells and NF-κB/Luc 293 reporter clone. Briefly: Western blot of phosphorylated-IκBα and total IκBα. It is filed as cell-based, human. The note with it: 50 and 500 nM, 1 hour pre-treatment, TNF-α 10 ng/mL 30 minutes. Here is the method: Endogenous protein levels were assessed in both HEK293 cells and the NF-κB/Luc 293 reporter clone.
Antibodies against total and phosphorylated forms of IκBα were used to determine the endogenous level of each protein and anti-Tubulin antibody was used to confirm equal loading of protein.

For series [2], the system named is Caspase-3 activity in Jurkat cells. In words: Caspase-3 activity assay in Jurkat cells. It counts as cell-based, human. The note with it: EC50 concentration, 19 hours. Here is the method:
Jurkat cells were plated at 2×10^6 cells/3 mL per well in a 6-well plate and incubated at 37° C., 5% (v/v) C02 and 95% (v/v) humidity. […] Bhalla, et al., Blood 82:3133 (1993). […] Cells treated with 0.25% DMSO served as the negative control. The cells were collected by centrifugation and the media removed. Cell pellets were processed for the Caspase-3 activity assay as described in the manufacturer's protocol (EnzChek Caspase-3 Assay Kit from Molecular Probes (E-13183; see Appendix G, which form a part of this application and is also available at hypertext transfer protocol on the worldwide web at “probes.com/media/pis/mp13183.pdf.”. In brief, cell pellets were lysed on ice, mixed with the EnzChek Caspase-3 components in a 96-well plate, and then incubated in the dark for 30 minutes prior to reading fluorescence of cleaved benzyloxycarbonyl-DEVD-AMC using a Packard Fusion with λex=485 nm and λem=530 nm filters. Protein concentrations for lysates were determined using the BCA Protein Assay Kit (Pierce) and these values were used for normalization.

Series [3] concerns 60 human tumor cell lines. In words: NCI screen of 60 human tumor cell lines. It counts as cell-based. Conditions: 48 h, read-out: mean GI50.
For the next series, the system named is HEK293 cells. In words: Cell growth inhibition (resazurin, 48 hours), HEK293. It counts as cell-based. The note with it: Table 2, HEK293, human embryonic kidney, read-out: EC50 (nM), mean ± SD.
Another series has as its system Jurkat cells. In words: Cytotoxicity against Jurkat cells. It counts as cell-based, human.
The next series has as its system CCD-27sk cells. In words: Cytotoxic activity against normal human fibroblasts. It counts as cell-based. The note with it: 48h, panel of b226.
The nature of series [4]: Maximum Tolerated Dose (MTD) determination. It is filed as in vivo, BALB/c mice. From the text:
In vivo studies were designed to determine the MTD of Salinosporamide A when administered intravenously to female BALB/c mice.
Animals were observed daily for clinical signs and were weighed individually twice weekly until the end of the experiment (maximum of 14 days after the last day of dosing).

A further series has as its target CYP1A2 (Homo sapiens, UniProt P05177). Briefly: Preliminary P450 inhibition screen, CYP1A2. From the text: (§1) These studies consisted of solubility assessment, LogD^7.4 determination and a preliminary screen to detect cytochrome P450 enzyme inhibition.
The target in the next series is CYP2C9 (Homo sapiens, UniProt P11712). In words: Preliminary P450 inhibition screen, CYP2C9.
Chain of CYP2C9 (P11712 whole entry): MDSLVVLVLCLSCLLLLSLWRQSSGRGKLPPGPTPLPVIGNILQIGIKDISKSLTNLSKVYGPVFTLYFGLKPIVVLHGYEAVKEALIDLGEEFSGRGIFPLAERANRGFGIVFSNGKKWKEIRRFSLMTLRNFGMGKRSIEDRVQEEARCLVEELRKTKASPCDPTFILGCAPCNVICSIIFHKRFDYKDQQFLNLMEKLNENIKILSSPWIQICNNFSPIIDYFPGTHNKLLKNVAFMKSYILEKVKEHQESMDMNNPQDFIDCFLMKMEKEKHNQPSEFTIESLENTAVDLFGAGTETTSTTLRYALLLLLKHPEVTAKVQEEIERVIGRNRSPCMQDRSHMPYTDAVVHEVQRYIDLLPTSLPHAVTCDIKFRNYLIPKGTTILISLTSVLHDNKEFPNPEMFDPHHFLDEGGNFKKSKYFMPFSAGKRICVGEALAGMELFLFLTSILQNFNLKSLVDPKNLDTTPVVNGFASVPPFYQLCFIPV
Excerpt: as §1

In a further series the target is CYP2C19 (Homo sapiens, UniProt P33261). Briefly: Preliminary P450 inhibition screen, CYP2C19.
Chain of CYP2C19 (P33261 whole entry): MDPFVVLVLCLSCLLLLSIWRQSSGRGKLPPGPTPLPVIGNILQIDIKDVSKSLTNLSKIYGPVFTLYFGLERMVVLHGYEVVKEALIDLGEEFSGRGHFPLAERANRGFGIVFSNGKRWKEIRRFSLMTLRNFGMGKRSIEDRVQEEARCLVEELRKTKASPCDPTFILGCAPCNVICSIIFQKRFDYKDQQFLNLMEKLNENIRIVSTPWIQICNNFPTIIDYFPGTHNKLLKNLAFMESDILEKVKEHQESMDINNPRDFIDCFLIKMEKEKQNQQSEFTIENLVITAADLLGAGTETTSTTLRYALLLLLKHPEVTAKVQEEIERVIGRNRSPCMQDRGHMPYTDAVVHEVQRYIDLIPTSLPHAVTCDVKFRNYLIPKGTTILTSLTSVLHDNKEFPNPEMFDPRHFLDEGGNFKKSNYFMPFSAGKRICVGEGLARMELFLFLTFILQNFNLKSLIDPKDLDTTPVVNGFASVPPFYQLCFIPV
Excerpt: as §1

Series [5] addresses T1, chymotrypsin-like proteasome activity in packed whole blood lysate (Mus musculus, UniProt O55234).
T1 construct: The supernatant (Packed Whole Blood Lysate, PWBL) was transferred to a fresh tube; from tissue; host or cells: packed whole blood cells of Swiss-Webster mice, hypotonic lysate
Briefly: Whole blood proteasome activity (packed whole blood lysate, PWBL) of treated mice. It counts as in vivo. The protocol: In brief, frozen whole blood samples were thawed on ice for one hour, and resuspended in 700 μL of ice cold 5 mM EDTA, pH 8.0 in order to lyse the cells by hypotonic shock. This represents approximately 2-3 times the volume of the packed whole blood cells. Lysis was allowed to proceed for one hour, and the cellular debris was removed by centrifuigation at 14,000×g for 10 minutes. The supernatant (Packed Whole Blood Lysate, PWBL) was transferred to a fresh tube, and the pellet discarded. Protein concentration of the PWBL was determined by BCA assay (Pierce) using BSA as a standard.
Proteasome activity was determined by measuring the hydrolysis of a fluorogenic substrate specific for the chymotrypsin-like activity of proteasomes (suc-LLVY-AMC, Bachem Cat. 1-1395). […] Hydrolysis of the substrate results in the release of free AMC, which was measured fluorometrically by using λex=390 nm and λem=460 nm. The rate of hydrolysis in this system is linear for at least one hour. The hydrolysis rate of each sample is then normalized to relative fluorescent units per milligram of protein (RFU/mg).
The vehicle control consisted of 2% DMSO in 10% solutol. […] Packed whole blood cells were collected by centrifugation, washed with PBS, and re-centrifuged. All samples were stored at −80° C. prior to the evaluation of the proteasome activity. […]

Another series deals with LPS-induced plasma TNF. In words: Inhibition of in vivo LPS-induced TNF. Conditions: 0.125 or […] i.v., 30 minutes post-LPS (2 mg/kg i.p.), mice. The protocol: Male Swiss Webster mice (12/group weighing 20-25 g) were injected with LPS (2 mg/kg) by the i.p. route. […] Ninety minutes after LPS injection, the mice were anesthetized with Isoflurane and bled by cardiac puncture to obtain plasma. Remaining blood pellet was then resuspended in 500 μL of PBS to wash away residual serum proteins and centrifuged again. Supernatant was removed and blood pellet frozen for analysis of proteasome inhibition in packed whole blood lysate.
Animals were dosed i.v. with 4 ml/kg. A vehicle control solution was also prepared by making the same 1:160 dilution with 100% DMSO into 10% solutol solution giving a final concentration of 9.375% solutol in water and 0.625% DMSO. Measurements of plasma TNF were performed using the Biosource mTNF Cytoset kit (Biosource Intl., Camarillo, Calif.; catalog #CMC3014) according to manufacturer's instructions. Samples were diluted 1:60 for the assay.

Series [6] has as its system PARP and Pro-Caspase 3 cleavage in PC-3 cells. Briefly: Cleavage of PARP and Pro-Caspase 3 (western blot), PC-3. It is filed as cell-based, human. The note with it: 100 nM, 0, 8 or 24 hours. Here is the method:
Total protein lysates were made and 20 μg of the lysates were then resolved under reducing/denaturing conditions and blotted onto nitrocellulose. The blots were then probed with anti-PARP or anti-caspase 3 antibodies followed by stripping and reprobing with an anti-actin antibody.
For orientation: In western blotting, separated proteins are transferred to a membrane and probed.

The nature of series [7]: Cytotoxicity / growth inhibition, summary over several cell lines. The note with it: human, mouse.
The test system of a further series is tumor cell lines. The description is as above. The note with it: 48 h, read-out: EC50 values against RPMI 8226 and the prostate cell lines.

T1 sequence (O55234 60-264): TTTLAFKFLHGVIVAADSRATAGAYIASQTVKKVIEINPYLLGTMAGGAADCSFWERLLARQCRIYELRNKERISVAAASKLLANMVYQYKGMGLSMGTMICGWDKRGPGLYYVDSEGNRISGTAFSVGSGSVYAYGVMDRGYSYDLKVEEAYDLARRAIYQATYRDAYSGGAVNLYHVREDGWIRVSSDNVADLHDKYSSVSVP
Chain of CYP1A2 (P05177 whole entry): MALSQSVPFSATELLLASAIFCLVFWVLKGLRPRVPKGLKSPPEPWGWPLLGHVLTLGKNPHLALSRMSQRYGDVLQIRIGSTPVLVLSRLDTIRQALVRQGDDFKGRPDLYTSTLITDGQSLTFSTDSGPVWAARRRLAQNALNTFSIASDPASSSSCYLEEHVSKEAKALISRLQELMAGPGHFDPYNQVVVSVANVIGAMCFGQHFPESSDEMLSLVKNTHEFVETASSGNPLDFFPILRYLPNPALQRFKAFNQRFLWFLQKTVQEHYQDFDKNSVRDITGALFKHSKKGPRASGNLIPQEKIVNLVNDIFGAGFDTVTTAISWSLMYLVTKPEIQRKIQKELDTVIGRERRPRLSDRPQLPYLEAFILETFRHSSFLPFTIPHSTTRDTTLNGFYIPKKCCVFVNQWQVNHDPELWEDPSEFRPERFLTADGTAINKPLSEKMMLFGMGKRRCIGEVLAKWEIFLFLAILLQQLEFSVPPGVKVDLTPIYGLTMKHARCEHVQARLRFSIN

Regarding `C[C@@]12OC(=O)[C@]1([C@@H](O)[C@@H]1C=CCCC1)NC(=O)[C@@H]2CCCl` [Formula II-16, Salinosporamide A], the “degradation of total IκBα and phospho-IκBα level” value in series [1] was “reduced the degradation of total IκBα but also retained the phospho-IκBα level”. Also, the Caspase-3 activity result in series [2] is “activation of Caspase-3”. In addition, the GI50 – broadly, the concentration at which growth is held to half of that of the control – in series [3] is less than 10 nM. The EC50 (commonly the concentration giving half of the maximal effect) is 47 nM with HEK293 cells; 10 nM in the series on Jurkat cells (Homo sapiens, Jurkat); 196 nM with CCD-27sk cells; 10 to 37 nM in the series on tumor cell lines. The “% max cell kill” value with Jurkat cells (Table 5, Jurkat Cells) was 97%. Further, the “behavioral changes during the course of the experiment” value in series [4] (0.01 to 0.5 mg/kg i.v.) is on record as “No behavioral changes were noted”. Further, the “dose well tolerated when administered daily for five consecutive days” value in series [4] (i.v., qdx5, female BALB/c mice) is on record as “up to 0.1 mg/kg”. For the same molecule, the “single intravenous dose tolerated” value in series [4] (i.v., single dose (qdx1), female BALB/c mice) was “up to 0.25 mg/kg”. In addition, the inhibition (commonly the drop in the measured response relative to a control, in per cent) at 10 µM was determined as 3% on CYP1A2, 6% on CYP2C9 and 22% at CYP2C19. Further, the “proteasomal activity in PWBL” value in series [5] (male Swiss-Webster mice, i.v. or oral, 90 minutes after administration (FIG. 40)) was “profound decrease in proteasomal activity in PWBL”. The inhibition at […] in series [5] (mouse, iv, 0.25 mg/kg i.v., mice, read-out: ex vivo proteasome inhibition in packed whole blood) turned out to be 94 ± 3%. In addition, the “reduction of LPS-induced plasma TNF levels” value in the series with LPS-induced plasma TNF is “approximately 65%”. In addition, the “cleavage of PARP” value in [6] was “noticeable at 24 hours”. In series [6], the “cleavage of Pro-Caspase 3” value is given as “not detected”. In addition, the EC50 at 48 h in series [7] fell in the range of 10 to 200 nM.
